Experimental data as given in paper PMC9848421, “Increased brain uptake of pterostilbene loaded folate modified micellar delivery system” (Drug Delivery, 2022).

How the values were obtained:
[1] = test system: A172 cells; assay: In vitro cytotoxicity assay (CCK-8); format: cell-based; conditions: Homo sapiens, A 172, 48 h incubation
Description: Human glioblastoma A172 cells (Nanjing KeyGen Biotech Co., Ltd., Nanjing, China) which overexpress folate receptor (Weitman et al., [1992]) were used. Cells were routinely cultured in DMEM medium (Invitrogen, Grand Island, NY, USA) supplemented with 10% fetal bovine serum (Gibco Life Science, Grand Island, NY, USA) and 1% streptomycin/penicillin in a humidified atmosphere of 5% CO2 at 37 °C. Cell passages were carried out according to the manufacturer’s instructions.
To evaluate the inhibitory effects of Pt in various formulations on A172 cells, cytotoxicity assay was carried out with CCK-8 kits. Cells were seeded into 96-well plates at a density of 5,000 cells per well, followed by incubation for 24 h. Cells were treated with free Pt solution (free Pt), Pt loaded micelles (Pt/M), folate modified Pt loaded micelles (F-Pt/M) and blank micelles (BM) at equivalent drug concentrations ranging from 5 μM to 100 μM and further incubated for 48 h. […] After 2 h of incubation at 37 °C, the absorbance intensity was measured by a microplate reader (Varioskan LUX; Thermo Scientific Inc., Vantaa, Finland) at 450 nm. Cell viability was calculated by the ratio between the fluorescence absorbance of the cells treated with various Pt formulations (or blank micelles) and that of the cells incubated with the culture medium only. The IC50 values were calculated by using SPSS 22.0 (IBM Corp., Armonk, NY).

[2] = test system: red blood cells (RBCs); assay: In vitro hemolysis assay; format: cell-based, SD rats; conditions: 37 °C, 1 h
Description: The hemocompatibility of F-Pt/M was investigated by hemolysis assay (Valenzuela-Oses et al., [2017]). Fresh SD rats blood was diluted by physiological saline, and red blood cells (RBCs) were collected by centrifugation at 1,200 rpm for 5 min. Following carefully washing and diluting, RBC suspension in normal saline (v/v, 2%) was prepared for hemolysis study. Pt loaded F-Pt/M and free Pt at different drug concentrations were added and mixed by vortex. Then, the samples were incubated at 37 °C for 1 h and after that were centrifuged at 3,000 rpm for 10 min. The supernatant was collected and spectrophotometrically measured on a microplate plate reader (Varioskan LUX, Thermo Scientific Inc., Vantaa, Finland) at 540 nm. Double distilled water and normal saline were employed as positive and negative control, respectively. The hemolysis ratio (HR) of RBCs was calculated using the following equation: (4) HR (%) = (As– A0)/(A100– A0) × 100
Where, As is the absorbance of sample, A0 is the absorbance of negative control and A100 is the absorbance of positive control.

[3] = parameters: method as in Liu et al., 2020; conditions: crude Pt; ref Liu et al., 2020; cited from earlier work
[4] = Brain targeting and brain distribution study in rats; format: in vivo, SD rats; conditions: single i.v. 3 mg/kg; for Cmax / Tmax / half-life: male, SD, rat, iv
Description: Male SD rats weighing 200–250 g (Experimental Animal Center of Dalian Medical University, China) were maintained in standard conditions on a 14 h light/10 h dark cycle provided with food and water ad libitum prior to experimental procedures. All animal experimental protocols were conducted with an approval by the Institutional Animal Care and Use Committee at Dalian Medical University, Dalian, China (Ethics Committee approval number: SCXK 2018-0003) as well as in accordance with the recommendations and policies of the National Institutes of Health (NIH) guide for the care and use of laboratory animals (NIH Publications No. 8023, revised 1978).
Rats were randomly divided into two groups of 24 animals each. Each group received either freshly prepared control free Pt solution in DMSO (10%) in saline solution or formulation of F-Pt/M at a dose equivalent to 3 mg/kg of drug intravenously through lateral tail vein. From each group, three rats were sacrificed at intervals of 5, 15, 30, 45, 60, 90, 120 and180 min post dose. At each time point, blood sample was withdrawn and centrifuged at 3,500 rpm at 4 °C for 10 min. At the same time, the brain sample was harvested, weighed, and homogenized in PBS after cardiac perfusion with 0.9% normal saline solution. Samples were stored at −80 °C until analysis.
Pt from both brain and plasma samples was extracted by liquid-liquid extraction method. Briefly, 20 µL of internal standard working solution (resveratrol, 250 ng/ml) was added to 200 µL aliquot of plasma or brain sample. After 30 seconds of vortexing, 1 mL of extraction solvent, methyl tertiary butyl ether (MTBE) was added. Afterwards, the sample was mixed for 1 min plus centrifugation at 1,000 rpm for 5 min, the supernatant organic layer was carefully transferred and dried using nitrogen gas with gentle heat at 40 °C. The residue was reconstituted with 400 µL of mobile phase and centrifuged at 12,000 rpm for 10 min. The supernatant was transferred to an auto-sampler vial and 10 µL was then injected into the LC-MS/MS system for analysis. An LC-MS/MS analysis method reported by Ferrer (Ferrer et al., [2005]) was employed for the determination of Pt concentration.
Pharmacokinetic parameters, such as Cmax (maximum drug concentration), Tmax (the time to Cmax) and AUC0-t (area under plasma concentration-time curve), were calculated by DAS 2.0 (Drug and Statistics ver 2.0, China). To examine the blood-brain barrier penetration (P) of Pt, the following formula was employed (Yang et al., [2021]): (5) P=AUCbrain/AUCplasma
For brain targeting evaluation, DTI (drug targeting index) was determined using the following equation (Katekar et al., [2020]): (6) DTI = (AUCbrain/AUCplasma)test/(AUCbrain/AUCplasma)control

[5] = In vitro drug release by dialysis method; format: physicochemical; conditions: PBS pH 7.4 containing 0.3% Tween 80
Description: With free Pt acetone solution as control, in vitro release of Pt from F-Pt/M formulation was studied by the dialysis method (Khan et al., [2020]; Rubab et al., [2021]; Yang et al., [2021]). Briefly, 1 mL of samples, equivalent to 0.8 mg drug, were filled into dialysis bags (molecular weight cutoff: 3500 Da) and dialyzed against 1,000 mL of phosphate buffer solution of pH values 7.4 (containing 0.3% Tween 80) to mimic drug release in normal tissues/blood. At the desired time intervals, 1 mL of release medium was withdrawn and replaced with 1 mL of fresh medium. The amount of released Pt was measured by spectrophotometer (Thermo Scientific Inc., Finland) with excitation wavelength at 330 nm and emission wavelength at 374 nm.
In order to understand the kinetic model of Pt release from F-Pt/M, zero-order, first-order and Higuchi models were fitted, and the highest adjusted R^2 value was used as the criterion for model selection.

## COc1cc(/C=C/c2ccc(O)cc2)cc(OC)c1 [free Pt, 3,5-dimethoxy-4′-hydroxy-trans-stilbene]
[1]
  IC50: 24.4 µM
[2]; high concentration of 0.5 mg/mL
  HR (hemolysis ratio): 11.23%
[2]; low concentration of 0.17 mg/mL
  HR (hemolysis ratio): 6.46%
[2]; medium concentration of 0.33 mg/mL
  HR (hemolysis ratio): 10.39%
[3]
  solubility in water: about 21 µg/mL
[4]; brain
  AUC0-t: 4369.66 ± 289.88 µg·min/L
  Cmax: 78.1 ± 13.9 ng/mL
  Tmax: 35 min
  half-life: 22.4 ± 2.84 min
[4]; plasma
  Cmax: 221 ± 21.6 ng/mL
  Tmax: 5 min
  half-life: 114 ± 29.2 min
  AUC0-t: 10107.80 ± 976.65 µg·min/L
[5]
  time over which the drug was released: ≤ 5 h
